US10273278B2, “Epitope recognized by anti-interferon gamma autoantibodies in patients with disseminated mycobacterial infections and the application therefor” (priority 2015, dated 2019)

Assays:
p-STAT1 in whole blood = p-STAT1 in whole blood ex vivo; type: cell-based, human; details: for p-STAT1 signaling restored / up-regulated: IFNr AutoAbs patients' whole blood; for p-STAT1 signal: controls' whole blood
Description: Representative histograms (FIG. 4f(1)-FIG. 4f(2)) and MFI (median fluorescence intensity) (FIG. 4g) are shown.

[1] = tested on: HLA-DR expression in PBMCs; test: HLA-DR expression in PBMCs (CD14+ gated); type: cell-based, human; details: IFNr AutoAbs patients' PBMCs pre-incubated with 10% autologous plasma
Experimental: A total of 10^6 PBMCs in 200 μL RPMI-1640 with 10% FBS and 1% penicillin/streptomycin was used. Cells were then stimulated with 500 IU IFNr, IFNr_1-131 or EE-IFNr⋅ in 160 μL RPMI-1640 pre-incubated with 40 μL of normal blood plasma or patient blood plasma for 10 min at room temperature. After 24 hours of stimulation in a 37° C. incubator, monocytes were identified by FITC-CD14 (BD Pharmingen) surface staining. Next, PE-HLA-DR antibody (BD Pharmingen) was added followed by 30 minutes of incubation on ice in the dark. Cells were again washed with 2 ml of PBS before resuspension in 500 μl of PBS. Data were collected with a FACSVerse flow cytometer (BD Biosciences) and analyzed using FACSuite software (BD Biosciences).
After being gated on the CD14^+, HLA-DR expression levels were determined by flow cytometry with the HLA-DR monoclonal antibody. Representative histograms (FIG. 4d(1)-FIG. 4d(2)) and MFI (median fluorescence intensity) (FIG. 4e) are shown.

IL-12p40 in PBMCs = type: cell-based, human
p-STAT1 in PBMCs = test: p-STAT1 intracellular stain in PBMCs (CD14+ gated); type: cell-based, human; details: for p-STAT1 signaling restored / up-regulated: IFNr AutoAbs patients' PBMCs pre-incubated with 10% autologous blood plasma; for phosphorylation of STAT1: controls' PBMCs pre-incubated with 20% blood plasma with anti-IFNr AutoAbs from patients; for p-STAT1 signaling: controls' PBMCs, 20% control blood plasma
Experimental: A total of 10^6 PBMCs in 200 μL RPMI-1640 with 10% FBS and 1% penicillin/streptomycin was used. […] After 30 minutes of stimulation in a 37° C. incubator, monocytes were identified by FITC-CD14 (BD Pharmingen) surface staining. Fixed by adding 250 μL of FASC lysing solution (BD Pharmingen) and incubated at room temperature for 15 minutes in the dark, followed by two washes with PBS. To permeabilize the cells, 500 μl of ice-cold absolute methanol was added to each tube and incubated for 15 minutes on ice in the dark, followed by two washes with PBS. Next, PE-phospho-STAT1 (pY701) antibody (BD Pharmingen) was added, followed by 30 minutes incubation on ice in the dark. Again, cells were washed with 2 mL of PBS before resuspension in the 500 μL of PBS. Data were collected with a FACSVerse flow cytometer (BD Biosciences) and analyzed using FACSuite software (BD Biosciences).
Representative histograms (FIG. 2c(1)-FIG. 2c(2)) and MFI (median fluorescence intensity) (FIG. 2d) are shown.
After being gated on the CD14^+, p-STAT-1 levels were determined by flow cytometry with the p-STAT-1 monoclonal antibody. Representative histograms (FIG. 4a(1)-FIG. 4a(2)) and MFI (median fluorescence intensity) (FIG. 4b) are shown.

THP1 cells = test: p-STAT1 in THP1 cells pre-incubated with sera of immunized rats and treated with IFNr; type: cell-based; details: 50% sera
WKY/NcrlNarl rats = test: Immunization of rats with Noc2 or IFNr peptide conjugated with OVA; type: in vivo, rat; details: 0.25 mg peptide-OVA, booster every two weeks
Experimental: The inventor immunized WKY/NcrlNarl rats with 0.25 mg Noc2 or IFNr[…] peptide (Noc2: […] (SEQ NO: 31); IFNr: […] (SEQ NO: 32)) conjugated with ovalbumin (OVA) and gave a booster dose every two weeks after the initial injection (day 0). After 70 days, the inventor checked the antibody production level by dot blot or ELISA at each injection. All rats were sacrificed ten days after the tenth injection (day 136) and whole blood was collected. After collection of the whole blood, the blood was allowed to clot by leaving it undisturbed at room temperature 15 minutes. Clots were removed by centrifuging at 1500 g for 10 minutes in a refrigerated centrifuge. Sera were aliquoted and stored at −20° C. for further use.
Blood sera from pre-immunized rats (n=6), Noc2 peptide-immunized rats (n=4) and Peptide 6-immunized rats (n=2) were mapped to control peptide, Peptide 6 and Noc2 peptide from Aspergillus terreus or Aspergillus fumigatus. This is represented as the mean optical density (OD) at 405 nm.

anti-IFNr AutoAbs [2] = test: Protein mapping ELISA of recombinant IFNr proteins with blood plasma; type: binding, human; details: for recognition of recombinant IFNr protein by blood plasma (ELISA): plasma from group-1 patients
anti-IFNr AutoAbs [3] = test: Immunoblotting (Western blot / dot blot) with patient or control plasma; type: binding, human; details: for recognition by anti-IFNr AutoAbs in Western blot and dot blot: plasma from anti-IFNr AutoAbs patients; for binding of plasma from healthy controls in Western blot: plasma from healthy donors
Experimental: Recombinant IFNr[…] (R&D Systems) and different truncated forms of recombinant IFNr[…] were subjected to SDS-PAGE using a 10% gel under reducing conditions at 120 V for 2 hours. The proteins were transferred to a PVDF membrane (Invitrogen Life Technologies) at 250 mA for 2 hours. The membrane was blocked in 5% human normal serum albumin (Aventis) in TBS with 0.1% Tween 20 overnight at 4° C. The membrane was incubated with a 1/100 dilution of patient or control blood plasma for 3 hours at room temperature. After being washed three times, the membrane was incubated in a 1/10,000 dilution of mouse anti-human IgG conjugated with horseradish peroxidase (Jackson ImmunoResearch Laboratories) for 1 hour at room temperature. After being washed three times, the membrane was developed with ECL (Merck Millipore).
Plasma from 3 healthy donors had no response to either IFNr1-131 or EE-IFNr.

anti-IFNr AutoAbs [4] = test: Epitope mapping ELISA of synthetic peptides with blood plasma; type: binding, human; details: for recognition of synthetic peptide by blood plasma: plasma from anti-IFNr AutoAbs patients (group-1), 1:100, OD 405 nm
Experimental: Clear polystyrene 96-well flat bottom plates (Nunc) were coated with 100 μL of peptide solution (5 μg/mL) with b-carbonate buffer (pH 9.6) at 4° C. overnight. After blocking the remaining binding sites with 5% human normal serum albumin (Aventis) in PBS, the plates were incubated at 37° C. for 1 hour. Afterward, the plates were washed 3 times with 0.5% Tween 20 in PBS.
Blood plasma samples were added at a 1:100 dilution, in PBS containing 5% human normal serum albumin. Following incubation at room temperature for 2 hours and being washed 3 times, goat anti-human IgG Fcr fragment specific conjugated with alkaline phosphate (Jackson ImmunoResearch Laboratories), was added at a 1:5000 dilution, and the plates were kept for 1 hour at room temperature. Finally, after being washed 5 times, 100 μL of p-Nitrophenyl Phosphate (pNPP) was added and the reaction was read at 405 nm by a VICTOR X3 Multilabel Plate Reader (PerkinElmer) after 30 minutes of incubation at 37° C.

anti-IFNr AutoAbs [5] = test: Competition ELISA against coated peptide 6; type: binding, human; details: patient plasma pre-incubated with 5-30 μg/mL competitor peptide
Experimental: To evaluate the specificity of the reaction, a competition ELISA experiment was performed. Each plasma sample (1:100 dilutions) was pre-incubated with different concentrations (5-30 μg/mL) of the competition peptides overnight at 4° C. Subsequently, all plasma and different concentrations competition peptides mixture samples were examined following the epitope mapping protocol. Peptide 6 was coated with b-carbonate buffer (pH 9.6) at 4° C. overnight. After blocking at 37° C. for 1 hour, all pre-incubated plasma and different concentrations competition peptides mixture samples were added in duplicate. Following 2 hours of room temperature incubation, goat anti-human IgG Fcr fragment specific conjugated with alkaline phosphate, was added. Finally, 100 μL of pNPP was added and the reaction was read at 405 nm by a VICTOR X3 Multilabel Plate Reader (PerkinElmer) after 30 minutes of incubation at 37° C.

anti-IFNr AutoAbs [6] = test: Detection and titration of IFNr neutralizing autoantibodies (patient plasma, IFNr ELISA); type: binding, human; details: 200 pg/mL IFNr incubated with serially diluted patient plasma
Experimental: Blood plasma from patients and donors was serially diluted (10^−1 to 10^−6) and incubated with recombinant human IFNr at a final concentration of 200 pg/mL for 1 hour at 37° C. The IFNr level was measured with a human IFNr ELISA kit from BD Biosciences according to the manufacturer's recommendations. All experiments were performed in duplicate.

Q: With “recombinant IFNr: Recombinant human IFNr (R&D Systems), commercial wild type [reference compound]” as the molecule, how does the “p-STAT1 signaling restored / up-regulated” value (p-STAT1 in whole blood) read?
A: up-regulated p-STAT1 signaling was not found

Q: What about the p-STAT1 signal (p-STAT1 in whole blood) of the same molecule?
A: up-regulated

Q: What about the “HLA-DR expression levels restored / up-regulated” value [1] of the same molecule?
A: up-regulated HLA-DR expression levels were not observed

Q: And the IL-12p40 expression (IL-12p40 in PBMCs)?
A: elevation of IL-12p40 expression couldn't be observed

Q: What about the “p-STAT1 signaling restored / up-regulated” value (p-STAT1 in PBMCs) of the same molecule?
A: up-regulated p-STAT1 signaling cannot be observed

Q: What about the “phosphorylation of STAT1” value (p-STAT1 in PBMCs) of the same molecule?
A: not

Q: And the p-STAT1 signaling (p-STAT1 in PBMCs)?
A: Up-regulation of the p-STAT1 signaling was observed

Q: Which results are given for CTPKTGKRKRSEQ?
A: p-STAT1 signaling after recombinant IFNr in presence of sera of immunized rats (THP1 cells): decreased up-regulation of p-STAT1 signaling; antibodies developed after immunization (WKY/NcrlNarl rats): developed anti-Noc2 antibodies that cross-reacted with human IFNr

Q: With “IFNr_1-144: full-length recombinant IFNr expressed in Schneider 2 cells [reference compound]” as the molecule, how does the “recognition of recombinant IFNr protein by blood plasma (ELISA)” value (anti-IFNr AutoAbs [2]) read?
A: recognized by blood plasma isolated from the group-1 patients

Q: And the “recognition by anti-IFNr AutoAbs in Western blot and dot blot” value (anti-IFNr AutoAbs [3])?
A: recognized by anti-IFNr AutoAbs

Q: With “peptide 6: 30-mer synthetic peptide of human IFNr, P114-143 (IQVMAELSPAAKTGKRKRSQMLFRGRRASQ; UniProt P01579 137-166, looked up, fragment)” as the molecule, how does the “recognition of synthetic peptide by blood plasma” value (anti-IFNr AutoAbs [4]) read?
A: recognized in the blood plasma isolated from the 12 patients in group-1

Q: And the “recognition of synthetic peptide by non-neutralizing AutoAbs” value (anti-IFNr AutoAbs [4]; plasma from healthy donors with non-neutralizing IFNr AutoAbs)?
A: did not recognize

Q: And the “competition for AutoAbs binding to coated peptide 6” value (anti-IFNr AutoAbs [5])?
A: competition for the binding with coated peptide 6 in a dose dependent manner

Q: Which “recognition of synthetic peptide by blood plasma” value (anti-IFNr AutoAbs [4]) does the source give for “KKDVTPKTGKRKRSEQQKDE (KKDVPPKTGKRKRSEQQKDE; listed as Aspergillus terreus) [Aspergillus Noc2 peptide]” here?
A: recognized by blood plasma isolated from patients with anti-IFNr AutoAbs

Q: What about the “binding of synthetic peptide by blood plasma” value (anti-IFNr AutoAbs [4]; plasma from mycobacteria infected patients without AutoAbs / healthy controls) of the same molecule?
A: did not react

Q: What about the “competition for AutoAbs binding to coated peptide 6” value (anti-IFNr AutoAbs [5]) of the same molecule?
A: compete for IFNr AutoAbs binding with peptide 6 in a dose dependent manner

B1: mIFNr: murine IFNr (protein, UniProt P01580 23-155, looked up)
Interferon gamma: HGTVIESLESLNNYFNSSGIDVEEKSLFLDIWRNWQKDGDMKILQSQIISFYLRLFEVLKDNQAISNNISVIESHLITTFFSNSKAKKDAFMSIAKFEVNNPQVQRQAFNELIRVVHQLLPESSLRKRKRSRC
Q: With B1 as the molecule, how does the “blocking of IFNr detection by plasma from patients with AutoAbs (plasma dilution)” value (anti-IFNr AutoAbs [6]) read?
A: no blocking activity

Q: And the “blocking of IFNr detection by plasma from patients with AutoAbs (plasma dilution)” value (anti-IFNr AutoAbs [6]; listed as murine IFNr)?
A: did not show blocking activity

B2: IFNr_1-131: truncated recombinant human IFNr, deletion clone a.a. 1-131, expressed in Schneider 2 cells (protein)
chain: QDPYVKEAENLKKYFNAGHSDVADNGTLFLGILKNWKEESDRKIMQSQIVSFYFKLFKNFKDDQSIQKSVETIKEDMNVKFFNSNKKKRDDFEKLTNYSVTDLNVQRKAIHELIQVMAELSPAAKTGKRKR
modifications: left off: small tags and cut ends
notes: truncated recombinant human IFNr, deletion clone a.a; 1-131, expressed in Schneider 2 cells
Q: What does the source list for B2?
A: affinity of anti-IFNr AutoAbs by ELISA (anti-IFNr AutoAbs [2]; patients' blood plasma, OD 405 nm): bound to IFNr_1-131 in a dose dependent manner; recognition of recombinant IFNr protein by blood plasma (ELISA) (anti-IFNr AutoAbs [2]): recognized by blood plasma isolated from the group-1 patients; p-STAT1 signaling restored / up-regulated (p-STAT1 in whole blood): up-regulated p-STAT1 signaling was not found; p-STAT1 signal (p-STAT1 in whole blood): up-regulated; HLA-DR expression levels restored / up-regulated [1]: up-regulated HLA-DR expression levels were not observed; IL-12p40 expression (IL-12p40 in PBMCs): elevation of IL-12p40 expression couldn't be observed; p-STAT1 signaling restored / up-regulated (p-STAT1 in PBMCs): up-regulated p-STAT1 signaling cannot be observed; phosphorylation of STAT1 (p-STAT1 in PBMCs): not; p-STAT1 signaling (p-STAT1 in PBMCs): Up-regulation of the p-STAT1 signaling was observed; recognition by anti-IFNr AutoAbs in Western blot and dot blot (anti-IFNr AutoAbs [3]): recognized by anti-IFNr AutoAbs; binding of plasma from healthy controls in Western blot (anti-IFNr AutoAbs [3]): no response; binding of plasma from healthy controls in Western blot (anti-IFNr AutoAbs [3]; listed as WT IFNr_1-131): could not bind
